These results are taken from patent publication US9045445B2, “Glycine transporter-1 inhibitors, methods of making them, and uses thereof” (Albany Molecular Research, Inc., priority 2010, dated 2015).

Broadly, the IC50 is the concentration that inhibits the measured activity by half.

Test [1] concerns the target T1, glycine transporter-1 (GlyT-1) (Homo sapiens, UniProt P48067).
T1 construct: JAR cells (ATCC#HTB-144), which endogenously express GlyT-1; host or cells: JAR human choriocarcinoma cells
T1 sequence (P48067 1-706): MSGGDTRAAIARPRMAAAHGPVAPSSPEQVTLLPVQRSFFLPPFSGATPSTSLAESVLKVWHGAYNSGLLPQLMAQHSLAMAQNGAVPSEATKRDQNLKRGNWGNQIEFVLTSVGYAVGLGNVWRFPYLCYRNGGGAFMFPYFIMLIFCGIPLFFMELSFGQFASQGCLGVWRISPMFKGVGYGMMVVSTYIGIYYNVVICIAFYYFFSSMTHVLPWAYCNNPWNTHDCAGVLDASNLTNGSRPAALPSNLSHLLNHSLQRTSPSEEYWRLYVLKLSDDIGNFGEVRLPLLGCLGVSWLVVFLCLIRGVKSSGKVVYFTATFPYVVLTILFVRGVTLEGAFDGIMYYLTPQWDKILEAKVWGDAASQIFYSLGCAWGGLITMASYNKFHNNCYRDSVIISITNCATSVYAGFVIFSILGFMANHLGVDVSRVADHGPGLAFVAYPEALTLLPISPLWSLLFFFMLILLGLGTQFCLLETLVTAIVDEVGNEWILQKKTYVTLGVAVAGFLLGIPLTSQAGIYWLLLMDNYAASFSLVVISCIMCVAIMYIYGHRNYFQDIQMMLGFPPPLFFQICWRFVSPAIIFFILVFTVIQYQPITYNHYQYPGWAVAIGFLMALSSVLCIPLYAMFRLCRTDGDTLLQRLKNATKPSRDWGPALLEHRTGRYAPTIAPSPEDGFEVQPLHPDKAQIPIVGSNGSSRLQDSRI
The test is described as follows: [14C]glycine uptake assay in JAR cells endogenously expressing GlyT-1 (scintillation proximity). In kind it is cell-based. In outline:
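IC50 comes from a four-parameter fit of nine-point, duplicate curves measuring inhibition of 5 μM [14C]glycine uptake, read by scintillation proximity after 3 h at 37 °C. Cells are human JAR, which express GlyT-1 endogenously, given 10 min compound pre-treatment in pH 7.4 buffer with 5 mM alanine and 0.75% DMSO.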
(In a scintillation proximity assay essentially only radioactivity close to the scintillant gives light.)

In test [2] the target is T2, glycine transporter-2 (GlyT-2) (Homo sapiens, UniProt Q9Y345).
T2 construct: expressed in transfected cells
T2 sequence (Q9Y345 1-797): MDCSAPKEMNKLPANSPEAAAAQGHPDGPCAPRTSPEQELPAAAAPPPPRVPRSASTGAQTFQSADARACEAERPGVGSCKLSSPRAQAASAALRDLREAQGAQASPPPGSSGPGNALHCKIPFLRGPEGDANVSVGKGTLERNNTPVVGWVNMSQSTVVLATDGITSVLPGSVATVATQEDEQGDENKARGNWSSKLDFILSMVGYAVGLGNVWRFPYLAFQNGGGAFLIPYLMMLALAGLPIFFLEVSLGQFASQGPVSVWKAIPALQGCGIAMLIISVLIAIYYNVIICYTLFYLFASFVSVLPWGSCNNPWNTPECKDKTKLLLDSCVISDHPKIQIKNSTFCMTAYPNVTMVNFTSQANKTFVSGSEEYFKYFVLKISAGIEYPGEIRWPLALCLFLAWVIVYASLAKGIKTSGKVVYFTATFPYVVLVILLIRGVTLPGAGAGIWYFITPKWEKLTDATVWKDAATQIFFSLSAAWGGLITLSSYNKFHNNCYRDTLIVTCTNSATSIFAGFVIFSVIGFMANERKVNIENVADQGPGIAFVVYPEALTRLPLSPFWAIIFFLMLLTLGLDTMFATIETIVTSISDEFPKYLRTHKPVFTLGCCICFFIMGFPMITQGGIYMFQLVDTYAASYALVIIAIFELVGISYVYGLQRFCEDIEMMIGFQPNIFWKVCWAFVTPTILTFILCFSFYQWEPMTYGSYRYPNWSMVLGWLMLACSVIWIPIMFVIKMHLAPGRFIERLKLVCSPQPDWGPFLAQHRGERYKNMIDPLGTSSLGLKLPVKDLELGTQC
The test can be described thus: [14C]glycine uptake assay in HEK-GlyT-2 transfected cells. Format: cell-based. The following applies: HEK-GlyT-2 cells.

[3] abbreviates: JAR cells, [14C]glycine 5 μM, 3 hour incubation, read-out: GlyT-1 IC50.

Counter-ions that a name gives are not always drawn. Like-named read-outs stand apart in the source and are kept apart here. A value given as a limit tells only on which side of the number the result lay.

`CCCS(=O)(=O)N1CCN(C2(CNC(=O)c3c(C)cc(Cl)cc3C)CCC(F)(F)CC2)CC1` [compound 266, 4-Chloro-N-((4,4-difluoro-1-(4-(propylsulfonyl)piperazin-1-yl)cyclohexyl)methyl)-2,6-dimethylbenzamide Hydrochloride]: the figures for the IC50 in test [1] (setting [3]) and in test [2] were 11 nM and greater than 75000 nM, respectively.

As to `CCCS(=O)(=O)N1CCN(C2(CNC(=O)c3c(Cl)cccc3Cl)CCC(F)(F)CC2)CC1` [compound 135, 2,6-Dichloro-N-((4,4-difluoro-1-(4-(propylsulfonyl)piperazin-1-yl)cyclohexyl)methyl) benzamide Hydrochloride], the results for the IC50 in test [1] (setting [3]) and in test [2] were 42 nM and greater than 75000 nM, respectively.

As for `CCCS(=O)(=O)N1CCN(C2(CNC(=O)c3cccc(C(F)(F)F)c3Cl)CCCCC2)CC1` [compound 22, 2-Chloro-N-((1-(4-(propylsulfonyl)piperazin-1-yl)cyclohexyl)methyl)-3-(trifluoromethyl) benzamide Hydrochloride], the IC50 in test [1] (GlyT-1 IC50 (nM)) turned out to be 77 nM; in test [2], 41300 nM.

In the case of `COc1cc(F)cc(SC)c1C(=O)NCC1(N2CCN(S(=O)(=O)CC3CC3)CC2)CCCCC1` [compound 82, N-((1-(4-(Cyclopropylmethyl-sulfonyl)piperazin-1-yl)cyclohexyl)methyl)-4-fluoro-2-methoxy-6-(methylthio)benzamide Hydrochloride], the IC50 in test [1] (setting [3]) is 50 nM; in test [2], greater than 75000 nM.

On to `CCCS(=O)(=O)N1CCN(C2(CNC(=O)c3c(Cl)cccc3Cl)CCCCCC2)CC1` [compound 64, 2,6-Dichloro-N-((1-(4-(propylsulfonyl)piperazin-1-yl)cycloheptyl)methyl) benzamide Hydrochloride], for which the IC50 was 11 nM in test [1] (setting [3]) and greater than 75000 nM in test [2].

As to `Cn1cnc(S(=O)(=O)N2CCN(C3(CNC(=O)c4c(F)cccc4F)CCOCC3)CC2)c1` [compound 124, 2,6-Difluoro-N-((4-(4-(1-methyl-1H-imidazol-4-ylsulfonyl)piperazin-1-yl)tetrahydro-2H-pyran-4-yl)methyl)benzamide Hydrochloride], the results for the IC50 in test [1] (setting [3]) and in test [2] were 337 nM and greater than 75000 nM, respectively.

As for `CCCS(=O)(=O)N1CCN(C2(CNC(=O)c3c(F)cccc3OC)CCCCC2)CC1` [compound 44, 2-Fluoro-6-methoxy-N-((1-(4-(propyl-sulfonyl)piperazin-1-yl)cyclohexyl)methyl) benzamide Hydrochloride], the figures for the IC50 in test [1] (setting [3]) and in test [2] were 17 nM and greater than 75000 nM, respectively.

`CCCS(=O)(=O)N1CCN(C2(CNC(=O)c3c(C)cc(C)cc3C)CCCCC2)CC1` [compound 36, 2,4,6-Trimethyl-N-((1-(4-(propylsulfonyl)piperazin-1-yl)cyclohexyl)methyl) benzamide Hydrochloride]: the half-maximal inhibitory concentration (IC50) was 39 nM in test [1] (setting [3]) and greater than 75000 nM in test [2].

Turning to `CCCS(=O)(=O)N1CCN(C2(CNC(=O)c3ccc(Cl)cc3OC)CCCCC2)CC1` [compound 45, 4-Chloro-2-methoxy-N-((1-(4-(propyl-sulfonyl)piperazin-1-yl)cyclohexyl)methyl) benzamide Hydrochloride], the half-maximal inhibitory concentration (IC50) in test [1] (setting [3]) was 322 nM; in test [2], greater than 75000 nM.

For `CCCS(=O)(=O)N1CCN(C2(CNC(=O)c3ccc(F)cc3)CCCCC2)CC1` [compound 15, 4-Fluoro-N-((1-(4-(propylsulfonyl)piperazin-1-yl)cyclohexyl)methyl) benzamide Hydrochloride], the IC50 was 786 nM in test [1] (setting [3]) and greater than 75000 nM in test [2].

Regarding `CCCS(=O)(=O)N1CCN(C2(CNC(=O)c3ccc(OCc4ccccc4)cc3)CCCCC2)CC1` [compound 27, 4-(Benzyloxy)-N-((1-(4-(propylsulfonyl)piperazin-1-yl)cyclohexyl)methyl) benzamide Hydrochloride], the IC50 in test [1] (setting [3]) came to 549 nM; in test [2] it was 635 nM.

With `Cn1cnc(S(=O)(=O)N2CCN(C3(CNC(=O)c4c(F)cccc4F)CCCCCC3)CC2)c1` [compound 107, 2,6-Difluoro-N-((1-(4-(1-methyl-1H-imidazol-4-ylsulfonyl)piperazin-1-yl)cycloheptyl)methyl) benzamide Hydrochloride], the IC50 in test [1] (setting [3]) is 9 nM; in test [2], greater than 75000 nM.

On to `CCCS(=O)(=O)N1CCN(C2(CNC(=O)c3cccc(C(F)(F)F)c3)CCCCC2)CC1` [compound 28, N-((1-(4-(Propylsulfonyl)piperazin-1-yl)cyclohexyl)methyl)-3-(trifluoromethyl) benzamide Hydrochloride], for which the 50% inhibitory concentration (IC50) in test [1] (setting [3]) is 523 nM; in test [2], greater than 75000 nM.

Turning to `CCCS(=O)(=O)N1CCN(C2(CNC(=O)c3c(C)cc(F)cc3OC)CCCCCC2)CC1` [compound 69, 4-Fluoro-2-methoxy-6-methyl-N-((1-(4-(propylsulfonyl)piperazin-1-yl)cycloheptyl)methyl) benzamide Hydrochloride], the IC50 in test [1] (setting [3]) is 4 nM; in test [2], greater than 75000 nM.

Take `CCCS(=O)(=O)N1CCN(C2(CNC(=O)c3c(C)cccc3C)CCCCC2)CC1` [compound 47, 2,6-Dimethyl-N-((1-(4-(propylsulfonyl)piperazin-1-yl)cyclohexyl)methyl) benzamide Hydrochloride]: the values for the IC50 in test [1] (setting [3]) and in test [2] were 12 nM and greater than 75000 nM, respectively.

Turning to `CCCS(=O)(=O)N1CCN(C2(CNC(=O)c3ccccc3Cl)CCCCC2)CC1` [compound 8, 2-Chloro-N-((1-(4-(propylsulfonyl)piperazin-1-yl)cyclohexyl)methyl) benzamide Hydrochloride], the IC50 is 36 nM in test [1] (setting [3]) and greater than 75000 nM in test [2].

In the case of `CCCS(=O)(=O)N1CCN(C2(CNC(=O)c3ccc(Cl)c(Cl)c3)CCCCCC2)CC1` [compound 68, 3,4-Dichloro-N-((1-(4-(propylsulfonyl)piperazin-1-yl)cycloheptyl)methyl) benzamide Hydrochloride], the IC50 in test [1] (setting [3]) came to 174 nM; in test [2] it was 3150 nM.

As for `CCCS(=O)(=O)N1CCN(C2(CNC(=O)c3ccc(F)cc3C(F)(F)F)CCCCCC2)CC1` [compound 71, 4-Fluoro-N-((1-(4-(propylsulfonyl)piperazin-1-yl)cycloheptyl)methyl)-2-(trifluoromethyl)benzamide Hydrochloride], the figures for the 50% inhibitory concentration (IC50) in test [1] (setting [3]) and in test [2] were 22 nM and greater than 75000 nM, respectively.

On to “2-Chloro-N-((4,4-difluoro- 1-(3-(propylsulfonyl)-3,8- diazabicyclo[3.2.1]octan- 8-yl)cyclohexyl)methyl)- 4-(trifluoromethyl) benzamide Hydrochloride [compound 261]”, for which the 50% inhibitory concentration (IC50) in test [1] (setting [3]) was 311 nM; in test [2], greater than 75000 nM.

On to `Cn1cnc(S(=O)(=O)N2CCN(C3(CNC(=O)c4ccc(F)cc4Cl)CCC(F)(F)CC3)CC2)c1` [compound 166, 2-Chloro-N-((4,4-difluoro-1-(4-(1-methyl-1H-imidazol-4-ylsulfonyl)piperazin-1-yl)cyclohexyl)methyl)-4-fluorobenzamide Hydrochloride], for which the IC50 in test [1] (setting [3]) is 5 nM; in test [2] it was greater than 75000 nM.

`Cn1cc(S(=O)(=O)N2CCN(C3(CNC(=O)c4c(F)cccc4F)CCCC3)CC2)nn1` [compound 108, 2,6-Difluoro-N-((1-(4-(1-methyl-1H-1,2,3-triazol-4-ylsulfonyl)piperazin-1-yl)cyclopentyl)methyl) benzamide Hydrochloride]: the concentration for half-maximal inhibition (IC50) was 55 nM in test [1] (setting [3]) and greater than 75000 nM in test [2].
